Source: patent US20190038689A1, “TOPICAL SKIN COMPOSITIONS FOR TREATING ERYTHEMA OR SKIN INFLAMMATION” (MARY KAY INC., priority 2017, published 2019)

Tested on: Nitric oxide synthases (NOS)
Experiment: Nitric Oxide Synthase Activity Assay (NO product measured as nitrite, improved Griess method)
Assay type: biochemical
Details: for Nitric Oxide Synthase Activity: negative = reduction
Experimental: Nitric Oxide Synthase Activity Assay:
Nitric oxide synthases (NOS) are a family of enzymes catalyzing the production of nitric oxide (NO) from L-arginine. NOS is an important mediator of vasodilation in blood vessels. This bioassay was used to analyze the effect of saccharide isomerate extract, Myrothamnus flabellifolia extract, [6]-paradol, and a combination of algae extract and mugwort (Artemisia vulgaris) extract on the activity of NOS. The bioassay is performed in the presence or absence of the test compound, test extract, or positive control during production of NO by NOS. To measure the activity of NOS, the NO product is allowed to oxidize to nitrite and nitrate and then the nitrate is reduced to nitrite and measured using an improved Griess method. It was shown that saccharide isomerate extract, Myrothamnus flabellifolia extract, [6]-paradol, and a combination of algae extract and mugwort (Artemisia vulgaris) extract reduced the activity of NOS greater than the 1 μM SIN-1 positive control.

| Compound | Nitric Oxide Synthase Activity (1% ingredient) | activity of NOS was reduced by (rounded values of Table 2 (1% ingredient)) | activity of NOS was reduced by (1 μM positive control) | Nitric Oxide Synthase Activity (1 μM, positive control) |
| --- | --- | --- | --- | --- |
| CCCCCCCC(=O)CCc1ccc(O)c(OC)c1 [SYMRELIEF ® S, 1-(4-hydroxy-3-methoxyphenyl)decan-3-one] | −46.617% | ~47% | – | – |
| [NH-]c1c[n+](N2CCOCC2)no1 [SIN-1] | – | – | approximately 29% | −28.7% |
